Patent publication US9409952B2, “Peptide-compound cyclization method” (Chugai Seiyaku Kabushiki Kaisha, priority 2011, dated 2016)
Read-outs that look alike come from different tables or passages of the source. Starred links: 1 amine or outer side, 2 acyl side, 3 side chain; linkers in the order of their positions; H or OH if unused. Positions of bridges follow the written chain, without caps; N, C: chain ends. Non-standard residues stand in square brackets, D forms with d. Residues, ends and D or L forms follow the SMILES beside them. *: point of attachment. Phe(4-(CH2)5CO) = O=C([C@H](Cc1ccc(CCCCCC(=O)[*:3])cc1)N[*:1])[*:2]; Phe(3-(CH2)4CO) = O=C([C@H](Cc1cccc(CCCCC(=O)[*:3])c1)N[*:1])[*:2]; NMePhe(3-Cl) = CN[C@@H](Cc1cccc(Cl)c1)C(=O)O; NMeF = CN[C@@H](Cc1ccccc1)C(=O)O; NMeGABA = CN(CCCC(=O)[*:2])[*:1]; NMeI = CC[C@H](C)[C@H](NC)C(=O)O; NMeβAla = CN(CCC(=O)[*:2])[*:1]; NMeL = CN[C@@H](CC(C)C)C(=O)O; NMeV = CN[C@H](C(=O)O)C(C)C; NMeA = CN[C@@H](C)C(=O)O; Piperidide = C1CCN(*)CC1; dNMeA = CN[C@H](C)C(=O)O; β3hA = C[C@H](N)CC(=O)O; Sar = CNCC(=O)O; tBu = CC(C)(C)*

Experiments:
[1] = PAMPA (parallel artificial membrane permeability assay); assay type: in vitro ADME; details: PAMPA
In short: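 Artificial membrane was 10% (w/v) egg lecithin plus 0.5% (w/v) cholesterol in dodecane on a PVDF filter. A 10 mM DMSO stock was added at 0.5% (v/v) to donor buffer (50 mM MOPSO, pH 6.5, 5.0% glycocholic acid). After 18 h at 37 °C, LC/MS or LC/UV gave donor and acceptor levels for Pe.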

[2] = Metabolic stability in human hepatic microsome; assay type: in vitro ADME; details: microsomes
[3] = membrane permeation rate (Pe), 50 mM MOPSO buffer pH 6.5 with 5.0% glycocholic acid, 37° C., 18 hours, read-out: iPAMPA Pe
[4] = pH 7.4, human hepatic microsome, NADPH(+), read-out: CL NADPH(+)

Row | Structure (SMILES) | Papp at 18 hours, 50 µM [1, 3] [×10⁻⁶ cm/s] | microsomal CLint at 1 uM [2, 4] [µL/min/mg] | Papp at 18 hours, 50 µM ([1]; pH 6.5) [×10⁻⁶ cm/s] | microsomal CLint at 1 uM ([2]; human, pH 7.4, CL NADPH(+)) [µL/min/mg]
1 | CC(C)C[C@H]1C(=O)N[C@H](C(=O)N2CCCCC2)CC(=O)N(C)CCCC(=O)N(C)[C@@H](Cc2ccccc2)C(=O)N[C@@H]([C@@H](C)O)C(=O)N(C)[C@@H](CC(C)C)C(=O)N[C@@H](COC(C)(C)C)C(=O)N1C [DP-681] ([NMeGABA][NMeF]T[NMeL]S(tBu)[NMeL]D-Piperidide; lactam N-7) | 28 | 275 | – | –
2 | CC(C)C[C@H]1C(=O)N(C)[C@@H](Cc2ccccc2)C(=O)N[C@@H](Cc2ccccc2)C(=O)N(C)[C@@H](C)C(=O)N(C)[C@@H](C(C)C)C(=O)N[C@@H]([C@@H](C)O)C(=O)N[C@H](C(=O)N2CCCCC2)CC(=O)N(C)[C@@H](C)C(=O)N[C@@H](COC(C)(C)C)C(=O)NCC(=O)N1C [DP-438] ([NMeA]S(tBu)G[NMeL][NMeF]F[NMeA][NMeV]TD-Piperidide; lactam N-10) | 38 | 155 | – | –
3 | CC(C)C[C@@H]1NC(=O)[C@H](Cc2ccccc2)N(C)C(=O)[C@H]([C@@H](C)O)NC(=O)[C@H](Cc2ccccc2)N(C)C(=O)[C@H](C)N(C)C(=O)[C@H](C)NC(=O)C[C@@H](C(=O)N2CCCCC2)NC1=O [DP-539] (A[NMeA][NMeF]T[NMeF]LD-Piperidide; lactam N-7) | 20 | 260 | – | –
4 | CC[C@H](C)[C@@H]1NC(=O)[C@H](CC(C)C)N(C)C(=O)[C@H](Cc2ccccc2)N(C)C(=O)[C@@H](C(C)C)NC(=O)C[C@H](C)NC(=O)[C@H](CC(C)C)N(C)C(=O)[C@H](C)N(C)C(=O)[C@H]([C@@H](C)O)NC(=O)[C@H](Cc2ccccc2)N(C)C(=O)[C@H](C)N(C)C1=O [DP-780] (cyclo(I[NMeA][NMeF]T[NMeA][NMeL][β3hA][dV][NMeF][NMeL])) | – | – | 41 | 249
5 | CC(C)C[C@H]1C(=O)N(C)[C@@H](Cc2ccccc2)C(=O)N[C@@H]([C@@H](C)O)C(=O)N(C)[C@@H](C)C(=O)N(C)[C@@H](CC(C)C)C(=O)N(C)[C@@H](C)C(=O)N[C@H](C(=O)N2CCCCC2)CC(=O)N(C)CCC(=O)N(C)[C@@H](C)C(=O)N[C@@H](C)C(=O)N(C)[C@@H](C(C)C)C(=O)N1C [DP-414] ([NMeβAla][NMeA]A[NMeV][NMeL][NMeF]T[NMeA][NMeL][NMeA]D-Piperidide; lactam N-11) | 4.4 | 20 | – | –
6 | CC(C)C[C@H]1C(=O)N[C@@H](COC(C)(C)C)C(=O)N[C@@H](C)CC(=O)N[C@H](C(C)C)C(=O)N(C)[C@@H](Cc2cccc(Cl)c2)C(=O)N(C)[C@@H](C)C(=O)N(C)[C@@H](CC(C)C)C(=O)N[C@@H]([C@@H](C)O)C(=O)N(C)[C@@H](C)C(=O)N1C [DP-801] (cyclo([NMeA][NMeL]S(tBu)[β3hA][dV][NMePhe(3-Cl)][NMeA][NMeL]T)) | 60 | 133 | – | –
7 | CC[C@H](C)[C@@H]1NC(=O)[C@H](CC(C)C)N(C)C(=O)[C@H](C)NC(=O)CN(C)C(=O)[C@H](Cc2ccccc2)NC(=O)[C@H]([C@@H](C)O)NC(=O)[C@H](CC(C)C)N(C)C(=O)CCN(C)C(=O)C[C@@H](C(=O)N2CCCCC2)NC(=O)[C@H](CC(C)C)N(C)C(=O)[C@H](CC(C)C)N(C)C1=O [DP-413] ([NMeβAla][NMeL]TF[Sar]A[NMeL]I[NMeL][NMeL]D-Piperidide; lactam N-11) | 29 | 68 | – | –
8 | CC(C)C[C@H]1C(=O)N(C)[C@@H](Cc2ccccc2)C(=O)N(C)[C@@H](C)C(=O)N[C@@H](Cc2ccccc2)C(=O)N[C@H](C(=O)N(C)[C@@H](Cc2ccccc2)C(=O)N[C@@H](C)C(=O)N2CCCCC2)CC(=O)N(C)CC(=O)N[C@@H]([C@@H](C)O)C(=O)N(C)CC(=O)N[C@@H](C(C)C)C(=O)N1C [DP-316] ([Sar]T[Sar]V[NMeL][NMeF][NMeA]FD[NMeF]A-Piperidide; lactam N-9) | – | – | 12 | 35
9 | CC[C@H](C)[C@H]1C(=O)N[C@H](C(=O)N2CCCCC2)Cc2ccc(cc2)CCCCCC(=O)N[C@@H]([C@@H](C)O)C(=O)N(C)[C@@H](Cc2ccccc2)C(=O)N[C@@H](CC(C)C)C(=O)N2CCC[C@H]2C(=O)N[C@@H](C(C)C)C(=O)N[C@@H](Cc2ccccc2)C(=O)N(C)CC(=O)N[C@@H](CC(C)C)C(=O)N[C@@H](C)C(=O)N1C [DP-878] (T[NMeF]LPVF[Sar]LA[NMeI][Phe(4-(CH2)5CO)]-Piperidide; lactam N-11) | 23 | 152 | – | –
10 | CC[C@H](C)[C@H]1C(=O)N[C@@H](CC(C)C)C(=O)N(C)[C@@H](C)C(=O)N(C)[C@@H](Cc2ccccc2)C(=O)NCC(=O)N[C@@H]([C@@H](C)O)C(=O)N[C@@H](Cc2ccccc2)C(=O)N(C)[C@@H](CC(C)C)C(=O)N2CCC[C@H]2C(=O)N[C@H](C(=O)N2CCCCC2)Cc2cccc(c2)CCCCC(=O)N[C@@H](CC(C)C)C(=O)N1C [DP-877] (L[NMeI]L[NMeA][NMeF]GTF[NMeL]P[Phe(3-(CH2)4CO)]-Piperidide; lactam N-11) | 4.6 | 43 | – | –
11 | CC[C@H](C)[C@@H]1NC(=O)[C@H](Cc2ccccc2)N(C)C(=O)[C@H](Cc2ccccc2)NC(=O)[C@H](C(C)C)N(C)C(=O)[C@H](CC(C)C)N(C)C(=O)[C@H](CC(C)C)NC(=O)[C@@H](C)NC(=O)C[C@@H](C(=O)N2CCCCC2)NC(=O)[C@H]([C@@H](C)O)NC(=O)[C@H](C)NC(=O)[C@H](C)N(C)C1=O [DP-226] ([dA]L[NMeL][NMeV]F[NMeF]I[NMeA]ATD-Piperidide; lactam N-11) | 32 | 46 | – | –
12 | CC(C)C[C@H]1C(=O)N[C@@H]([C@@H](C)O)C(=O)N(C)[C@@H](Cc2ccccc2)C(=O)N(C)[C@@H](CC(C)C)C(=O)NCC(=O)N(C)[C@@H](C(C)C)C(=O)N[C@@H](Cc2ccccc2)C(=O)N[C@H](C(=O)N(C)[C@@H](Cc2ccccc2)C(=O)N(C)[C@@H](Cc2ccccc2)C(=O)N[C@@H](C)C(=O)N2CCCCC2)CC(=O)N(C)[C@H](C)C(=O)N[C@@H](C(C)C)C(=O)N1C [DP-503] ([dNMeA]V[NMeL]T[NMeF][NMeL]G[NMeV]FD[NMeF][NMeF]A-Piperidide; lactam N-10) | 0.2 | 43 | – | –
13 | CC[C@H](C)[C@H]1C(=O)N(C)[C@@H](CC(C)C)C(=O)N[C@H](C(=O)N2CCCCC2)CC(=O)N(C)[C@H](C)C(=O)N(C)[C@@H](CC(C)C)C(=O)N[C@@H](CC(C)C)C(=O)N(C)[C@@H](Cc2ccccc2)C(=O)N[C@@H](COC(C)(C)C)C(=O)N(C)[C@@H](Cc2ccccc2)C(=O)N[C@@H]([C@@H](C)O)C(=O)N(C)[C@@H](C)C(=O)N1C [DP-49] ([dNMeA][NMeL]L[NMeF]S(tBu)[NMeF]T[NMeA][NMeI][NMeL]D-Piperidide; lactam N-11) | – | – | 18 | 51
14 | CC[C@H](C)[C@H]1C(=O)NCC(=O)N[C@@H]([C@@H](C)O)C(=O)N2CCC[C@H]2C(=O)N[C@@H](Cc2ccccc2)C(=O)N(C)[C@@H](CC(C)C)C(=O)N[C@H](C(=O)N2CCCCC2)CC(=O)N[C@H](C(C)C)C(=O)N[C@@H](Cc2ccccc2)C(=O)N(C)[C@@H](CC(C)C)C(=O)N[C@@H](CC(C)C)C(=O)N1C [DP-231] ([dV]F[NMeL]L[NMeI]GTPF[NMeL]D-Piperidide; lactam N-11) | – | – | 18 | 56
15 | CC[C@H](C)[C@H]1C(=O)N[C@@H](C)CC(=O)N(C)[C@H](C)C(=O)N(C)[C@@H](CC(C)C)C(=O)N[C@@H]([C@@H](C)O)C(=O)N(C)CC(=O)N[C@@H](COC(C)(C)C)C(=O)N(C)[C@@H](CC(C)C)C(=O)N1C [DP-826] (cyclo([NMeI][β3hA][dNMeA][NMeL]T[Sar]S(tBu)[NMeL])) | 30 | 213 | – | –
16 | CC(C)C[C@@H]1NC(=O)[C@H](Cc2ccccc2)N(C)C(=O)[C@H](C)N(C)C(=O)C[C@@H](C(=O)N2CCCCC2)NC(=O)[C@H](Cc2ccccc2)N(C)C(=O)[C@H](C)N(C)C(=O)[C@H]([C@@H](C)O)NC(=O)CN(C)C(=O)[C@H](C)N(C)C(=O)[C@H](C)NC(=O)[C@H](C(C)C)N(C)C(=O)[C@H](CC(C)C)N(C)C1=O [DP-469] ([NMeA][NMeF]L[NMeL][NMeV]A[NMeA][Sar]T[NMeA][NMeF]D-Piperidide; lactam N-12) | 14 | 23 | – | –
17 | CC(C)C[C@H]1C(=O)N(C)[C@@H](CC(C)C)C(=O)N[C@H](C(=O)N2CCCCC2)CC(=O)N(C)CCCC(=O)N(C)[C@@H](Cc2ccccc2)C(=O)N[C@@H]([C@@H](C)O)C(=O)N(C)[C@@H](CC(C)C)C(=O)N[C@@H](COC(C)(C)C)C(=O)N1C [DP-686] ([NMeGABA][NMeF]T[NMeL]S(tBu)[NMeL][NMeL]D-Piperidide; lactam N-8) | 36 | 227 | – | –
18 | CC[C@H](C)[C@H]1C(=O)N[C@H](C(=O)N2CCCCC2)CC(=O)N(C)[C@H](C)C(=O)N(C)[C@@H](C)C(=O)N(C)CC(=O)N(C)[C@@H](CC(C)C)C(=O)N[C@@H]([C@@H](C)O)C(=O)N(C)[C@@H](Cc2ccccc2)C(=O)N(C)[C@@H](CC(C)C)C(=O)N[C@@H](COC(C)(C)C)C(=O)N1C [DP-144] ([dNMeA][NMeA][Sar][NMeL]T[NMeF][NMeL]S(tBu)[NMeI]D-Piperidide; lactam N-10) | – | – | 65 | 125
19 | CC(C)C[C@H]1C(=O)N(C)[C@@H](CC(C)C)C(=O)N[C@@H]([C@@H](C)O)C(=O)N(C)[C@@H](Cc2ccccc2)C(=O)N(C)[C@@H](CC(C)C)C(=O)N[C@H](C(=O)N(C)[C@@H](Cc2ccccc2)C(=O)N(C)[C@@H](Cc2ccccc2)C(=O)N[C@@H](C)C(=O)N2CCCCC2)CC(=O)N(C)[C@H](C)C(=O)N(C)[C@@H](Cc2ccccc2)C(=O)N(C)[C@@H](CC(C)C)C(=O)N[C@@H](C)C(=O)N1C [DP-207] ([dNMeA][NMeF][NMeL]A[NMeL][NMeL]T[NMeF][NMeL]D[NMeF][NMeF]A-Piperidide; lactam N-10) | 0.16 | 12 | – | –
